Source: ChEMBL document CHEMBL1201862, “PubChem BioAssay data set” (2004)
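In this assay, cells in 96-well plates receive the compound at five concentrations for 48 hours. Endpoints are linearly interpolated between the surrounding concentrations. GI50: concentration for 50% inhibition of growth.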 Active and inactive are the calls of the source. No stated cut-off is given here; in the data, active = GI50 up to about 1.1 µM and inactive = higher.

How the values were obtained:
Experiment in all cases: growth of human tumour cells (NCI), 48 h
[1] = test system: M14
[2] = test system: NCI-H23
[3] = test system: SF-539
[4] = test system: MDA-MB-231
[5] = test system: HOP-92
[6] = test system: RPMI-8226
[7] = test system: HT-29
[8] = test system: BT-549
[9] = test system: EKVX
[10] = test system: 786-0
[11] = test system: MDA-N
[12] = test system: UO-31
[13] = test system: RXF 393
[14] = test system: HOP-62
[15] = test system: T47D
[16] = test system: SN12C
[17] = test system: NCI-H522
[18] = test system: SK-MEL-28
[19] = test system: A549
[20] = test system: PC-3
[21] = test system: MDA-MB-435
[22] = test system: SW-620
[23] = test system: OVCAR-4
[24] = test system: HCC 2998
[25] = test system: SR
[26] = test system: ACHN
[27] = test system: SF-295
[28] = test system: CCRF-CEM
[29] = test system: SK-MEL-2
[30] = test system: Hs-578T
[31] = test system: HCT-15
[32] = test system: A498
[33] = test system: OVCAR-5
[34] = test system: SNB-75
[35] = test system: DU-145
[36] = test system: IGROV-1
[37] = test system: OVCAR-3
[38] = test system: KM12
[39] = test system: NCI/ADR-RES
[40] = test system: MOLT-4
[41] = test system: NCI-H226
[42] = test system: U-251
[43] = test system: SNB-19
[44] = test system: SK-OV-3
[45] = test system: COLO 205
[46] = test system: Malme-3M
[47] = test system: OVCAR-8
[48] = test system: HL-60
[49] = test system: HCT-116
[50] = test system: UACC-257
[51] = test system: CAKI-1
[52] = test system: SF-268
[53] = test system: UACC-62
[54] = test system: SK-MEL-5
[55] = test system: MCF7
[56] = test system: TK-10
[57] = test system: LOX IMVI

C=CCO/N=C/c1cc(/N=C(/S)c2ccoc2C)ccc1Cl
GI50 [1]: 16.6 µM (inactive)
GI50 [2]: 10 µM (inactive)
GI50 [3]: 25.4 µM (inactive)
GI50 [4]: 13.3 µM (inactive)
GI50 [5]: 17.3 µM (inactive)
GI50 [6]: 3.27 µM (inactive)
GI50 [7]: 10.3 µM (inactive)
GI50 [8]: 16.2 µM (inactive)
GI50 [9]: 11.9 µM (inactive)
GI50 [10]: 22.6 µM (inactive)
GI50 [11]: 13.6 µM (inactive)
GI50 [12]: 5.15 µM (inactive)
GI50 [13]: 21.3 µM (inactive)
GI50 [14]: 14.4 µM (inactive)
GI50 [15]: 3.65 µM (inactive)
GI50 [16]: 12.8 µM (inactive)
GI50 [17]: 8.22 µM (inactive)
GI50 [18]: 37.8 µM (inactive)
GI50 [19]: 21 µM (inactive)
GI50 [20]: 11.4 µM (inactive)
GI50 [21]: 19.1 µM (inactive)
GI50 [22]: 33.8 µM (inactive)
GI50 [23]: 5.18 µM (inactive)
GI50 [24]: 10.5 µM (inactive)
GI50 [25]: 6.22 µM (inactive)
GI50 [26]: 5.71 µM (inactive)
GI50 [27]: 9.48 µM (inactive)
GI50 [28]: 33.3 µM (inactive)
GI50 [29]: 13.6 µM (inactive)
GI50 [30]: 24.4 µM (inactive)
GI50 [31]: 8.26 µM
GI50 [32]: 20 µM (inactive)
GI50 [33]: 16.6 µM (inactive)
GI50 [34]: 15.7 µM (inactive)
GI50 [35]: 14 µM (inactive)
GI50 [36]: 13.2 µM (inactive)
GI50 [37]: 11.5 µM (inactive)
GI50 [38]: 7.93 µM (inactive)
GI50 [39]: 7.26 µM (inactive)
GI50 [40]: 5.71 µM (inactive)
GI50 [41]: 15.9 µM (inactive)
GI50 [42]: 13.9 µM (inactive)
GI50 [43]: 7.28 µM (inactive)
GI50 [44]: 18 µM (inactive)
GI50 [45]: 12.4 µM (inactive)
GI50 [46]: 15 µM (inactive)
GI50 [47]: 13.5 µM (inactive)
GI50 [48]: 20.6 µM (inactive)
GI50 [49]: 10.9 µM (inactive)
GI50 [50]: 14.9 µM (inactive)
GI50 [51]: 9.84 µM (inactive)
GI50 [52]: 14.8 µM (inactive)
GI50 [53]: 14.4 µM (inactive)
GI50 [54]: 11.4 µM (inactive)
GI50 [55]: 9.66 µM (inactive)
GI50 [56]: 16.6 µM (inactive)
GI50 [57]: 14.6 µM (inactive)

CC1(C)CCCC2(C)C3=C(CCC12)C(=O)OC3 (stereo not drawn)
GI50 [1]: > 100 µM (inactive)
GI50 [2]: > 100 µM (inactive)
GI50 [3]: > 100 µM (inactive)
GI50 [4]: > 100 µM (inactive)
GI50 [5]: > 100 µM (inactive)
GI50 [6]: 19.6 µM (inactive)
GI50 [7]: 66.7 µM (inactive)
GI50 [8]: 80.5 µM (inactive)
GI50 [9]: > 100 µM (inactive)
GI50 [10]: > 100 µM (inactive)
GI50 [11]: > 100 µM (inactive)
GI50 [12]: 38.9 µM (inactive)
GI50 [13]: 62.2 µM (inactive)
GI50 [14]: > 100 µM (inactive)
GI50 [15]: 59.2 µM (inactive)
GI50 [16]: > 100 µM (inactive)
GI50 [17]: > 100 µM (inactive)
GI50 [18]: > 100 µM (inactive)
GI50 [19]: > 100 µM (inactive)
GI50 [20]: > 100 µM (inactive)
GI50 [21]: > 100 µM (inactive)
GI50 [22]: > 100 µM (inactive)
GI50 [23]: 55.7 µM (inactive)
GI50 [24]: > 100 µM (inactive)
GI50 [25]: 39.4 µM (inactive)
GI50 [26]: > 100 µM (inactive)
GI50 [27]: > 100 µM (inactive)
GI50 [28]: > 100 µM (inactive)
GI50 [29]: > 100 µM (inactive)
GI50 [30]: 97.9 µM (inactive)
GI50 [31]: 87.9 µM
GI50 [32]: > 100 µM (inactive)
GI50 [33]: > 100 µM (inactive)
GI50 [34]: > 100 µM (inactive)
GI50 [35]: > 100 µM (inactive)
GI50 [36]: > 100 µM (inactive)
GI50 [37]: > 100 µM (inactive)
GI50 [38]: > 100 µM (inactive)
GI50 [39]: 86.3 µM (inactive)
GI50 [40]: 18.3 µM (inactive)
GI50 [41]: > 100 µM (inactive)
GI50 [42]: > 100 µM (inactive)
GI50 [44]: > 100 µM (inactive)
GI50 [45]: > 100 µM (inactive)
GI50 [46]: > 100 µM (inactive)
GI50 [47]: > 100 µM (inactive)
GI50 [48]: 17.6 µM (inactive)
GI50 [49]: > 100 µM (inactive)
GI50 [50]: > 100 µM (inactive)
GI50 [51]: 53.6 µM (inactive)
GI50 [52]: > 100 µM (inactive)
GI50 [53]: 93.5 µM (inactive)
GI50 [54]: 42.7 µM (inactive)
GI50 [55]: > 100 µM (inactive)
GI50 [56]: > 100 µM (inactive)
GI50 [57]: > 100 µM (inactive)
